# Measurements taken from patent US20220064195A1, “SYNTHETIC I2 IMIDAZOLINE RECEPTOR LIGANDS FOR PREVENTION OR TREATMENT OF HUMAN BRAIN DISORDERS” (Universitat de Barcelona, priority 2018, published 2022).
# Entries after “also recorded” stand apart in the source; their conditions may differ.
# Tests used:
# [1] = predictive penetration in the CNS from PAMPA-BBB Pe
# Procedure: (§1) To evaluate the brain penetration of the different compounds, a parallel artificial membrane permeation assay for blood-brain barrier was used, following the method described by Di et al. (cf. Table 2). The in vitro permeability (Pe) of fourteen commercial drugs through lipid extract of porcine brain membrane together with the test compounds were determined. Commercial drugs and assayed compounds were tested using a mixture of PBS:EtOH (70:30).
# [2] = in vitro; settings: pig, PAMPA
# Procedure: as §1
# [3] = tested on: SAMP8 mice; assay: Novel Object Recognition Test (NORT) in SAMP8 mice
# Procedure: (§2) Mice were placed in a 90°, two-arm, 25-cm-long, 20-cm-high, 5-cm-wide black maze. The walls could be lifted off for easy cleaning. Light intensity in the middle of the field was 30 lux. The objects to be discriminated were made of plastic and were chosen not to frighten the mice, and objects with parts that could be bitten were avoided. Before performing the test, the mice were individually habituated to the apparatus for 10 min during 3 days. On day 4, the animals were submitted to a 10-min acquisition trial (first trial), during which they were placed in the maze in the presence of two identical, novel objects (A+A or B+B) at the end of each arm. A 10-min retention trial (second trial) was carried out 2 h later. During this second trial, objects A and B were placed in the maze and the behavior of the mice was recorded with a camera. Time that the mice explored the new object (TN) and Time that the mice explored the Old object (TO) were measured. A Discrimination Index (DI) was defined as (TN−TO)/(TN+TO). In order to avoid object preference biases, A and B were counterbalanced so that one half of the animals in each experimental group were exposed first to A and then to B, whereas the remaining half saw B first and then A. The maze and the objects were cleaned with 70° ethanol after each test in order to eliminate olfactory cues.
# [4] = tested on: 5XFAD mice; assay: Novel Object Recognition Test (NORT) in 5XFAD mice
# Procedure: as §2
# [5] = tested on: II-6; assay: Gene expression of inflammatory marker II-6 by real-time PCR in SAMP8 mice
# Procedure: (§3) Total RNA isolation was carried out by means of Trizol reagent following manufacturer's instructions. […] Samples were also tested in an Agilent 2100B Bioanalyzer (Agilent Technologies) to determine the RNA integrity number. Reverse Transcription-Polymerase Chain Reaction (RT-PCR) was performed as follows: 2 μg of messenger RNA (mRNA) was reverse-transcribed using the High Capacity complementary DNA (cDNA) Reverse Transcription Kit (Applied Biosystems). Normalization of expression levels was performed with actin. SYBER Green, real-time PCR was performed in the Step One Plus Detection System (Applied Biosystems) employing the SYBR Green PCR Master Mix. Each reaction mixture contained 7.5 μL of cDNA, whose concentration was 2 μg, 0.75 μL of each primer (whose concentration was 100 nM), and 7.5 μL of SYBR Green PCR Master Mix (2×). Data were analyzed utilizing the comparative Cycle threshold (Ct) method (Fold Change), where the actin transcript level was used to normalize differences in sample loading and preparation. Each sample (n=4-5) was analyzed in triplicate, and results represented the n-fold difference of transcript levels among different samples.
# [6] = tested on: II-6; assay: Gene expression of inflammatory marker II-6 by real-time PCR in 5XFAD mice; settings: 5×FAD
# Procedure: as §3
# [7] = tested on: Cxcl10; assay: Gene expression of inflammatory marker Cxcl10 by real-time PCR in SAMP8 mice
# Procedure: as §3
# [8] = tested on: Cxcl10; assay: Gene expression of inflammatory marker Cxcl10 by real-time PCR in 5XFAD mice; settings: 5×FAD
# Procedure: as §3
smiles,measurement,setting,value
"CCOP(=O)(OCC)[C@]1(c2ccccc2)N=C[C@H]2C(=O)N(c3ccc(F)c(Cl)c3)C(=O)[C@H]21 (racemic) [Compound I-06, Diethyl (1RS,3aSR,6aSR)-5-(3-chloro-4-fluorophenyl)-4,6-dioxo-1-phenyl-1,3a,4,5,6,6a-hexahydropyrrolo[3,4-c]pyrrole-1-phosphonate]",CNS Prediction,[1],"CNS+ (compounds of high BBB permeation (CNS+): Pe (10^−6 cm s^−1)>5,179)"
same,Papp,[2],9.7 ± 0.7 ×10⁻⁶ cm/s
same,cognitive / memory effect in NORT (in words),"[3]; SAMP8 mice, treated group compared to the control",reduced memory deficits; also recorded: improves cognitive abilities
same,"DI (−1, 1) NORT 2 h","[3]; female SAMP8 mice at 12 months, 5 mg/kg, retention 2 h, mean ± SEM",0.33 ± 0.071
same,"DI (−1, 1) NORT 24 h","[3]; female SAMP8 mice at 12 months, 5 mg/kg, retention 24 h",0.273 ± 0.042
same,cognitive / memory effect in NORT (in words),"[4]; 5XFAD mice, treated group compared to the control",recovered DI levels of the Wild Type (Wt) control group; also recorded: improves cognitive abilities
same,"DI (−1, 1) NORT 2 h","[4]; female 5XFAD mice at 6 months, 5 mg/kg, retention 2 h",0.199 ± 0.053
same,"DI (−1, 1) NORT 24 h","[4]; female 5XFAD mice at 6 months, 5 mg/kg, retention 24 h",0.229 ± 0.051
same,"II-6 marker of neuroinflammation, gene expression in brain (in words)",[5],reduced
same,"II-6 marker of neuroinflammation, gene expression in brain (in words)",[6],reduced
same,"Cxcl10 marker of neuroinflammation, gene expression in brain (in words)",[7],reduced
same,"Cxcl10 marker of neuroinflammation, gene expression in brain (in words)",[8],reduced
